This passage reports EC50 results from US10570108B2, “Substituted benzofuran compounds for the treatment of hepatitis C” (BRISTOL-MYERS SQUIBB COMPANY, priority 2015, dated 2020).

Some results are limits rather than exact numbers.

For this assay, the system named is HCV replicon. Briefly: HCV replicon luciferase assay. Particulars: Hepatitis C virus, Huh-7, 72 h. The assay is classed as cell-based. As to the method: Cell lines. The cell lines used to evaluate compounds consist of a human hepatocyte derived cell line (Huh-7) that constitutively expresses a genotype 1b (Con-1) HCV replicon or a genotype 1b (Con-1) HCV replicon with an asparagine replacing the cysteine at amino acid 316, or a genotype 2a (JFH-1) replicon, containing a Renilla luciferase reporter gene. These cells were maintained in Dulbecco's modified Eagle medium (DMEM) containing 10% FBS, 100 U/mL penicillin/streptomycin and 1.0 mg/mL G418.
HCV replicon luciferase assay. To evaluate compound efficacy, titrated compounds were transferred to sterile 384-well tissue culture treated plates, and the plates were seeded with HCV replicon cells (50 μL at a density of 2.4×10^3 cells/well) in DMEM containing 4% FBS (final DMSO concentration at 0.5%). After 3 days incubation at 37° C., cells were analyzed for Renilla Luciferase activity using the EnduRen substrate (Promega cat #E6485) according to the manufacturer's directions. Briefly, the EnduRen substrate was diluted in DMEM and then added to the plates to a final concentration of 7.5 μM. The plates were incubated for at least 1 h at 37° C. then read on a Viewlux Imager (PerkinElmer) using a luminescence program. The 50% effective concentration (EC50) was calculated using the four-parameter logistic formula noted above.
In general, EC50 refers to the concentration at which the effect is half-maximal. Read a high EC50 as a less potent agent. Molecule `CCN(CC)c1cc2oc(-c3ccc(F)cc3)c(C(=O)NC)c2cc1-c1cccc(C(=O)N[C@H]2C(O)O[C@H](CO)[C@@H](O)[C@@H]2O)c1` (stereo partly drawn) [Compound 1001] displayed a 50% effective concentration (EC50) of 2820 nM.

`CCN(CC)c1cc2oc(-c3ccc(F)cc3)c(C(=O)NC)c2cc1-c1cccc(C(=O)NCCC2(O)CCCC2)c1` [Compound 1002] yielded an EC50 of less than 100 nM.

In turn, `CCN(CC)c1cc2oc(-c3ccc(F)cc3)c(C(=O)NC)c2cc1-c1cccc(C(=O)NC[C@H]2CCCC[C@H]2O)c1` [Compound 1003] showed an EC50 of less than 100 nM.

In turn, `CCOC(=O)[C@@H]1CCCC[C@@H]1NC(=O)c1cccc(-c2cc3c(C(=O)NC)c(-c4ccc(F)cc4)oc3cc2N(CC)CC)c1` [Compound 1004] returned an EC50 of less than 100 nM.

Molecule `CCN(CC)c1cc2oc(-c3ccc(F)cc3)c(C(=O)NC)c2cc1-c1cccc(C(=O)NC2CC(O)C2)c1` (stereo not drawn) [Compound 1005] yielded an EC50 of less than 100 nM.

Molecule `CCN(CC)c1cc2oc(-c3ccc(F)cc3)c(C(=O)NC)c2cc1-c1cccc(C(=O)NC2CCC(O)C2)c1` (stereo not drawn) [Compound 1006] displayed an EC50 of 44.5 nM.

The molecule `CCOC(=O)[C@H]1CCCC[C@@H]1NC(=O)c1cccc(-c2cc3c(C(=O)NC)c(-c4ccc(F)cc4)oc3cc2N(CC)CC)c1` [Compound 1007] displayed an EC50 of less than 100 nM.

In turn, `CCOC(=O)CC1(NC(=O)c2cccc(-c3cc4c(C(=O)NC)c(-c5ccc(F)cc5)oc4cc3N(CC)CC)c2)CCCCC1` [Compound 1008] displayed an EC50 of less than 100 nM.

The molecule `CCN(CC)c1cc2oc(-c3ccc(F)cc3)c(C(=O)NC)c2cc1-c1cccc(C(=O)N[C@H]2CC=CC[C@H]2CO)c1` [Compound 1009] displayed an EC50 of less than 100 nM.

`CCN(CC)c1cc2oc(-c3ccc(F)cc3)c(C(=O)NC)c2cc1-c1cccc(C(=O)NCc2ccccc2C(=O)OC)c1` [Compound 1010] gave an EC50 of less than 100 nM.

For `CCN(CC)c1cc2oc(-c3ccc(F)cc3)c(C(=O)NC)c2cc1-c1cccc(C(=O)NCC2(Cn3cccn3)CC2)c1` [Compound 1011], the EC50 was determined as 26.1 nM.

`CCN(CC)c1cc2oc(-c3ccc(F)cc3)c(C(=O)NC)c2cc1-c1cccc(C(=O)NCCCn2ccnc2)c1` [Compound 1012] displayed an EC50 of less than 100 nM.

As for `CCN(CC)c1cc2oc(-c3ccc(F)cc3)c(C(=O)NC)c2cc1-c1cccc(C(=O)NCCCn2cncn2)c1` [Compound 1013], the EC50 was less than 100 nM.

The molecule `CCN(CC)c1cc2oc(-c3ccc(F)cc3)c(C(=O)NC)c2cc1-c1cccc(C(=O)NCCN2CCNC2=O)c1` [Compound 1014] showed an EC50 of less than 100 nM.

The molecule `CCOP(=O)(CCCNC(=O)c1cccc(-c2cc3c(C(=O)NC)c(-c4ccc(F)cc4)oc3cc2N(CC)CC)c1)OCC` [Compound 1015] displayed an EC50 of less than 100 nM.

Consider `CCN(CC)c1cc2oc(-c3ccc(F)cc3)c(C(=O)NC)c2cc1-c1cccc(C(=O)NCCNS(=O)(=O)c2ccc(C)cc2)c1` [Compound 1016], for which the EC50 came to 32.5 nM.

As for `CCN(CC)c1cc2oc(-c3ccc(F)cc3)c(C(=O)NC)c2cc1-c1cccc(C(=O)NCC(=N)N)c1` [Compound 1017], the EC50 was 100 to 1000 nM.

With `CCN(CC)c1cc2oc(-c3ccc(F)cc3)c(C(=O)NC)c2cc1-c1cccc(C(=O)NCC2(c3ccccc3)CC2)c1` [Compound 1018], the EC50 lay within 100 to 1000 nM.

The molecule `CCN(CC)c1cc2oc(-c3ccc(F)cc3)c(C(=O)NC)c2cc1-c1cccc(C(=O)NCC2(C#N)CC2)c1` [Compound 1019] yielded an EC50 of less than 100 nM.

For the molecule `CCN(CC)c1cc2oc(-c3ccc(F)cc3)c(C(=O)NC)c2cc1-c1cccc(C(=O)NCC2(COC)CC2)c1` [Compound 1020], the EC50 is less than 100 nM.

In the case of `CCN(CC)c1cc2oc(-c3ccc(F)cc3)c(C(=O)NC)c2cc1-c1cccc(C(=O)NCC2(COc3ccccc3)CC2)c1` [Compound 1021], the EC50 came to 172 nM.

`CCN(CC)c1cc2oc(-c3ccc(F)cc3)c(C(=O)NC)c2cc1-c1cccc(C(=O)NCCCOc2ccccc2)c1` [Compound 1022] showed an EC50 of less than 100 nM.

`CCN(CC)c1cc2oc(-c3ccc(F)cc3)c(C(=O)NC)c2cc1-c1cccc(C(=O)NCCOc2ccccc2)c1` [Compound 1023] showed an EC50 of less than 100 nM.

As to `CC[C@H](COCc1ccccc1)NC(=O)c1cccc(-c2cc3c(C(=O)NC)c(-c4ccc(F)cc4)oc3cc2N(CC)CC)c1` [Compound 1024], the EC50 fell in the range of 100 to 1000 nM.

Regarding `CCN(CC)c1cc2oc(-c3ccc(F)cc3)c(C(=O)NC)c2cc1-c1cccc(C(=O)NCCOCc2ccccc2)c1` [Compound 1025], the EC50 was less than 100 nM.

As for `CCN(CC)c1cc2oc(-c3ccc(F)cc3)c(C(=O)NC)c2cc1-c1cccc(C(=O)NC2CCNC2=O)c1` (stereo not drawn) [Compound 1026], the EC50 turned out to be 11.1 nM.

Molecule `CCN(CC)c1cc2oc(-c3ccc(F)cc3)c(C(=O)NC)c2cc1-c1cccc(C(=O)NC2CNC(=O)C2)c1` (stereo not drawn) [Compound 1027] registered an EC50 of less than 100 nM.

The molecule `CCN(CC)c1cc2oc(-c3ccc(F)cc3)c(C(=O)NC)c2cc1-c1cccc(C(=O)NC2CCOCC2)c1` [Compound 1028] yielded a 50% effective concentration (EC50) of less than 100 nM.

In turn, `CCN(CC)c1cc2oc(-c3ccc(F)cc3)c(C(=O)NC)c2cc1-c1cccc(C(=O)NC2CCOC2)c1` (stereo not drawn) [Compound 1029] registered an EC50 of less than 100 nM.

As to `CCN(CC)c1cc2oc(-c3ccc(F)cc3)c(C(=O)NC)c2cc1-c1cccc(C(=O)N[C@@H]2C3CCC(C3)[C@@H]2CO)c1` (stereo partly drawn) [Compound 1030], the EC50 is less than 100 nM.

Regarding `CCN(CC)c1cc2oc(-c3ccc(F)cc3)c(C(=O)NC)c2cc1-c1cccc(C(=O)N[C@@]2(C)[C@@H](C(=O)OC)C[C@H]3C[C@@H]2C3(C)C)c1` [Compound 1031], it took 116 nM to reach a half-maximal effect (EC50).

On to `CCN(CC)c1cc2oc(-c3ccc(F)cc3)c(C(=O)NC)c2cc1-c1cccc(C(=O)N[C@]2(C)[C@H](C(=O)OC)C[C@@H]3C[C@H]2C3(C)C)c1` [Compound 1032], for which the EC50 was less than 100 nM.

Molecule `CCN(CC)c1cc2oc(-c3ccc(F)cc3)c(C(=O)NC)c2cc1-c1cccc(C(=O)NC(C)[C@@]23C[C@@H]4C[C@@H](C[C@@](O)(C4)C2)C3)c1` (stereo partly drawn) [Compound 1033] had an EC50 of less than 100 nM.

`CCN(CC)c1cc2oc(-c3ccc(F)cc3)c(C(=O)NC)c2cc1-c1cccc(C(=O)N[C@@]23C[C@@H]4C[C@@H](C[C@@](O)(C4)C2)C3)c1` [Compound 1034] showed an EC50 of less than 100 nM.

`CCN(CC)c1cc2oc(-c3ccc(F)cc3)c(C(=O)NC)c2cc1-c1cccc(C(=O)NC23CC4(C)CC(C)(CC(O)(C4)C2)C3)c1` [Compound 1035] showed an EC50 of less than 100 nM.

Molecule `CCN(CC)c1cc2oc(-c3ccc(F)cc3)c(C(=O)NC)c2cc1-c1cccc(C(=O)NCC2(C)COC2)c1` [Compound 1036] returned an EC50 of 26.6 nM.

`CCN(CC)c1cc2oc(-c3ccc(F)cc3)c(C(=O)NC)c2cc1-c1cccc(C(=O)NCC2(CO)COC2)c1` [Compound 1037] yielded an EC50 of less than 100 nM.

Regarding `CCN(CC)c1cc2oc(-c3ccc(F)cc3)c(C(=O)NC)c2cc1-c1cccc(C(=O)N[C@H]2C3CCC(C3)[C@H]2C(=O)O)c1` (stereo partly drawn) [Compound 1038], the EC50 was in the range of 100 to 1000 nM.

`CCN(CC)c1cc2oc(-c3ccc(F)cc3)c(C(=O)NC)c2cc1-c1cccc(C(=O)NCCCS(=O)(=O)O)c1` [Compound 1039]: the 50% effective concentration (EC50) was greater than 1000 nM.

`CCN(CC)c1cc2oc(-c3ccc(F)cc3)c(C(=O)NC)c2cc1-c1cccc(C(=O)NCS(=O)(=O)O)c1` [Compound 1040] came in with an EC50 greater than 1000 nM.

For `CCN(CC)c1cc2oc(-c3ccc(F)cc3)c(C(=O)NC)c2cc1-c1cccc(C(=O)N[C@H]2CCC[C@H]2C(=O)O)c1` [Compound 1041], the EC50 amounted to 135 nM.

The molecule `CCN(CC)c1cc2oc(-c3ccc(F)cc3)c(C(=O)NC)c2cc1-c1cccc(C(=O)N[C@H]2CCC[C@H]2C(=O)N[C@H]2CCC[C@H]2C(=O)O)c1` [Compound 1042] came in with an EC50 of 100 to 1000 nM.

The molecule `CCN(CC)c1cc2oc(-c3ccc(F)cc3)c(C(=O)NC)c2cc1-c1cccc(C(=O)N[C@H](CC(=O)O)CC(C)C)c1` [Compound 1043] returned an EC50 of less than 100 nM.

With `CCN(CC)c1cc2oc(-c3ccc(F)cc3)c(C(=O)NC)c2cc1-c1cccc(C(=O)N[C@H](CC(=O)N[C@H](CC(=O)O)CC(C)C)CC(C)C)c1` [Compound 1044], the EC50 lay within 100 to 1000 nM.

The molecule `CCN(CC)c1cc2oc(-c3ccc(F)cc3)c(C(=O)NC)c2cc1-c1cccc(C(=O)N[C@@H]2CCCC[C@H]2C(=O)N[C@@H]2CCCC[C@H]2C(=O)O)c1` [Compound 1045] returned an EC50 greater than 1000 nM.

On to `CCN(CC)c1cc2oc(-c3ccc(F)cc3)c(C(=O)NC)c2cc1-c1cccc(C(=O)NC2(CC(=O)O)CCCC2)c1` [Compound 1046], for which the response was half-maximal at 22.2 nM (EC50).

Regarding `CCN(CC)c1cc2oc(-c3ccc(F)cc3)c(C(=O)NC)c2cc1-c1cccc(C(=O)N[C@H]2CCCC[C@H]2C(=O)O)c1` [Compound 1047], the 50% effective concentration (EC50) is less than 100 nM.

Molecule `CCN(CC)c1cc2oc(-c3ccc(F)cc3)c(C(=O)NC)c2cc1-c1cccc(C(=O)N[C@@H]2CCCC[C@@H]2C(=O)O)c1` [Compound 2001] registered a concentration for a half-maximal effect (EC50) of 100 to 1000 nM.

Take `CCN(CC)c1cc2oc(-c3ccc(F)cc3)c(C(=O)NC)c2cc1-c1cccc(C(=O)NC2(CC(=O)O)CCCCC2)c1` [Compound 2002]: the EC50 was less than 100 nM.

Turning to `CCOP(=O)(O)CCCNC(=O)c1cccc(-c2cc3c(C(=O)NC)c(-c4ccc(F)cc4)oc3cc2N(CC)CC)c1` [Compound 2003], the EC50 was greater than 1000 nM.

The molecule `CNC(=O)c1c(-c2ccc(F)cc2)oc2cc([N+](=O)[O-])c(-c3cccc(C(=O)NC(CO)(CO)CO)c3)cc12` [Compound 3001] returned an EC50 of 2540 nM.
